Source: US12478624B2, “Heterocyclic derivatives, pharmaceutical compositions and their use in the treatment or amelioration of cancer” (Tolremo Therapeutics AG, priority 2019, dated 2025)

Assays:
[1] = test system: A375 cells; assay: Assay 1: A375 cells treated with S1152, S1008 and compound, immunofluorescence (sc-365823) signal; type: cell-based; conditions: 1 μM S1152 + 0.5 μM S1008, one day
Summary of the method: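 A375 cells treated one day with 1 μM S1152, 0.5 μM S1008 and compound dose ranges in DMEM/10% FCS, then fixed, permeabilised and immunostained. Green signal normalised to nuclear counterstain (ethidium-type or DAPI), log ratio fitted by four-parameter regression for EC50.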

[2] = test system: OPM-2; assay: Assay 2: multiple myeloma cellular efficacy, PrestoBlue cell proliferation/survival; type: cell-based; conditions: Homo sapiens, 96 h, OPM-2 cells, 4 days
Summary of the method: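 Cells seeded at 10000/well and exposed to a compound dose range or vehicle for 4 days, then stained with PrestoBlue for 2 h at 37 °C. Fluorescence was background-subtracted and normalized to vehicle; EC50 came from a four-parameter variable-slope fit against log concentration.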

| EC50 [1] | SMILES | EC50 [2] |
| --- | --- | --- |
| < 200 nM | CC(=O)N1C[C@H](c2nc(Nc3cccc4c3cnn4C)cc(-c3cccnc3)n2)CC[C@@H]1C [Compound 00056, 1-((2S,5R)-2-methyl-5-(4-((1-methyl-1H-indazol-4-yl)amino)-6-(pyridin-3-yl)pyrimidin-2-yl)piperidin-1-yl)ethan-1-one] | < 200 nM |
| < 200 nM | COc1cncc(-c2cc(Nc3cncc(C)c3)nc([C@@H]3CC[C@H](C)N(C(C)=O)C3)n2)c1 [Compound 00132, 1-((2S,5R)-5-(4-(5-methoxypyridin-3-yl)-6-((5-methylpyridin-3-yl)amino)pyrimidin-2-yl)-2-methylpiperidin-1-yl)ethan-1-one] | < 200 nM |
| 1000 to 10000 nM | CC(=O)N1C[C@H](c2nc(Nc3ccnc(F)c3)cc(-c3cncc(O)c3)n2)CC[C@@H]1C [Compound 00117, 1-((2S,5R)-5-(4-((2-fluoropyridin-4-yl)amino)-6-(5-hydroxypyridin-3-yl)pyrimidin-2-yl)-2-methylpiperidin-1-yl)ethan-1-one] | 1000 to 10000 nM |
| 1000 to 10000 nM | CC(=O)Nc1cc(Nc2cc(-c3cccnc3)nc([C@@H]3CC[C@H](C)N(C(C)=O)C3)n2)ccn1 [Compound 00136, N-(4-((2-((3R,6S)-1-acetyl-6-methylpiperidin-3-yl)-6-(pyridin-3-yl)pyrimidin-4-yl)amino)pyridin-2-yl)acetamide] | 1000 to 10000 nM |
| < 200 nM | CC(=O)N1C[C@H](c2nc(Nc3ccnc(-c4cnn(C)c4)c3)cc(-c3cccnc3)n2)CC[C@@H]1C [Compound 00143, 1-((2S,5R)-2-methyl-5-(4-((2-(1-methyl-1H-pyrazol-4-yl)pyridin-4-yl)amino)-6-(pyridin-3-yl)pyrimidin-2-yl)piperidin-1-yl)ethan-1-one] | < 200 nM |
| < 200 nM | CC(=O)N1C[C@H](c2nc(Nc3cccc4nn(C)cc34)cc(-c3cnccn3)n2)CC[C@@H]1C [Compound 00050, 1-((2S,5R)-2-methyl-5-(4-((2-methyl-2/−/−indazol-4-yl)amino)-6-(pyrazin-2-yl)pyrimidin-2-yl)piperidin-1-yl)ethan-1-one] | 200 to 1000 nM |
| < 200 nM | CC(=O)N1C[C@H](c2nc(Nc3cccc(F)c3)cc(-c3cccnc3)n2)CC[C@@H]1C [Compound 00080, 1-((2S,5R)-5-(4-((3-fluorophenyl)amino)-6-(pyridin-3-yl)pyrimidin-2-yl)-2-methylpiperidin-1-yl)ethan-1-one] | 200 to 1000 nM |
| < 200 nM | CC(=O)N1C[C@H](c2nc(Nc3cc(F)cc(-c4cnn(C)c4)c3)cc(-c3cncc(OCCO)c3)n2)CC[C@@H]1C [Compound 00093, 1-((2S,5R)-5-(4-((3-fluoro-5-(1-methyl-1H-pyrazol-4-yl)phenyl)amino)-6-(5-(2-hydroxyethoxy)pyridin-3-yl)pyrimidin-2-yl)-2-methylpiperidin-1-yl)ethan-1-one] | < 200 nM |
| < 200 nM | CC(=O)N1C[C@H](c2nc(Nc3cc(C)nc(F)c3)cc(-c3cccnc3)n2)CC[C@@H]1C [Compound 00134, 1-((2S,5R)-5-(4-((2-fluoro-6-methylpyridin-4-yl)amino)-6-(pyridin-3-yl)pyrimidin-2-yl)-2-methylpiperidin-1-yl)ethan1-one] | < 200 nM |
| < 200 nM | CC(=O)N1C[C@H](c2nc(Nc3cc(C)nc(C)c3)cc(-c3cccnc3)n2)CC[C@@H]1C [Compound 00138, 1-((2S,5R)-5-(4-((2,6-dimethylpyridin-4-yl)amino)-6-(pyridin-3-yl)pyrimidin-2-yl)-2-methylpiperidin-1-yl)ethan-1-one] | 200 to 1000 nM |
| < 200 nM | CC(=O)N1C[C@H](c2nc(Nc3ccnc(C)c3)cc(-c3cncc4c3ccn4C)n2)CC[C@@H]1C [Compound 00116, 1-((2S,5R)-2-methyl-5-(4-(1-methyl-1/7-pyrrolo[2,3-c]pyridin4-yl)-6-((2-methylpyridin-4-yl)amino)pyrimidin-2-yl)piperidin1-yl)ethan-1-one] | < 200 nM |
| < 200 nM | CC(=O)Nc1cccc(Nc2cc(-c3cncc4c3ccn4C)nc([C@@H]3CC[C@H](C)N(C(C)=O)C3)n2)c1 [Compound 00085, N-(3-((2-((3R,6S)-1-acetyl-6-methylpiperidin-3-yl)-6-(1-methyl-1H-pyrrolo[2,3-c]pyridin-4-yl)pyrimidin-4-yl)amino)phenyl)acetamide] | < 200 nM |
| < 200 nM | CC(=O)N1C[C@H](c2nc(Nc3cccc(-n4cnnn4)c3)cc(-c3cccnc3)n2)CC[C@@H]1C [Compound 00063, 1-((2S,5R)-5-(4-((3-(1H-tetrazol-1-yl)phenyl)amino)-6-(pyridin-3-yl)pyrimidin-2-yl)-2-methylpiperidin-1-yl)ethan-1-one] | 200 to 1000 nM |
| < 200 nM | CC(=O)N1C[C@H](c2nc(Nc3cccc(N4CCC4=O)c3)cc(-c3cccnc3)n2)CC[C@@H]1C [Compound 00087, 1-(3-((2-((3R,6S)-1-acetyl-6-methylpiperidin-3-yl)-6-(pyridin-3-yl)pyrimidin-4-yl)amino)phenyl)azetidin-2-one] | 200 to 1000 nM |
| 200 to 1000 nM | CC(=O)N1C[C@H](c2nc(Nc3cccc4c3CC(=O)N4)cc(-c3cccnc3)n2)CC[C@@H]1C [Compound 00051, 4-((2-((3R,6S)-1-acetyl-6-methylpiperidin-3-yl)-6-(pyridin-3-yl)pyrimidin-4-yl)amino)indolin-2-] | 1000 to 10000 nM |
| < 200 nM | CC(=O)N1C[C@H](c2nc(Nc3cccc(NC(=O)C4CC4)c3)cc(-c3cccnc3)n2)CC[C@@H]1C [Compound 00089, N-(3-((2-((3R,6S)-1-acetyl-6-methylpiperidin-3-yl)-6-(pyridin3-yl)pyrimidin-4-yl)amino)phenyl)-cyclopropanecarboxamide] | < 200 nM |
| < 200 nM | CC(=O)N1C[C@H](c2nc(Nc3cc(-c4cnn(C)c4)cc(C(F)F)c3)cc(-c3cnccn3)n2)CC[C@@H]1C [Compound 00055, 1-((2S,5R)-5-(4-((3-(difluoromethyl)-5-(1-methyl-1Hpyrazol-4-yl)phenyl)amino)-6-(pyrazin-2-yl)pyrimidin-2-yl)-2-methylpiperidin-1-yl)ethan-1-one] | < 200 nM |
| < 200 nM | COCCn1ccc2c(-c3cc(Nc4cccc(-c5cn(C)nn5)c4)nc([C@@H]4CC[C@H](C)N(C(C)=O)C4)n3)cncc21 [Compound 00094, 1-((2S,5R)-5-(4-(1-(2-methoxyethyl)-1H-pyrrolo[2,3-c]pyridin4-yl)-6-((3-(1-methyl-1H-1,2,3-triazol-4-yl)phenyl)amino)pyrimidin-2-yl)-2-methylpiperidin-1-yl)ethan1-one] | < 200 nM |
| < 200 nM | CC(=O)Nc1cccc(Nc2cc(-c3cccnc3)nc([C@@H]3CC[C@H](C)N(C(C)=O)C3)n2)c1 [Compound 00054, N-(3-((2-((3R,6S)-1-acetyl-6-methylpiperidin-3-yl)-6-(pyridin-3-yl)pyrimidin-4-yl)amino)phenyl)acetamide] | < 200 nM |
| < 200 nM | CC(=O)N1C[C@H](c2nc(Nc3ccnc(C)c3)cc(-c3cncc(C)n3)n2)CC[C@@H]1C [Compound 00131, 1-((2S,5R)-2-methyl-5-(4-(6-methylpyrazin-2-yl)-6-((2-methylpyridin-4-yl)amino)pyrimidin-2-yl)piperidin-1-yl)ethan-1-one] | < 200 nM |
| < 200 nM | COc1cc(Nc2cc(-c3cccnc3)nc([C@@H]3CC[C@H](C)N(C(C)=O)C3)n2)ccn1 [Compound 00139, 1-((2S,5R)-5-(4-((2-methoxypyridin-4-yl)amino)-6-(pyridin-3-yl)pyrimidin-2-yl)-2-methylpiperidin-1-yl)ethan1-one] | < 200 nM |
| < 200 nM | CC(=O)N1C[C@H](c2nc(Nc3cccc(-n4ccc(C)n4)c3)cc(-c3cccnc3)n2)CC[C@@H]1C [Compound 00077, 1-((2S,5R)-2-methyl-5-(4-((3-(3-methyl-1H-pyrazol-1-yl)phenyl)amino)-6-(pyridin-3-yl)pyrimidin-2-yl)piperidin-1-yl)ethan-1-one] | 200 to 1000 nM |
| < 200 nM | CC(=O)N1C[C@H](c2nc(Nc3cccc(-c4nnn(C)n4)c3)cc(-c3cccnc3)n2)CC[C@@H]1C [Compound 00062, 1-((2S,5R)-2-methyl-5-(4-((3-(2-methyl-2H-tetrazol-5-yl)phenyl)amino)-6-(pyridin-3-yl)pyrimidin-2-yl)piperidin-1-yl)ethan-1-one] | < 200 nM |
| < 200 nM | CC(=O)N1C[C@H](c2nc(Nc3cccc(-c4noc(C)n4)c3)cc(-c3cnccn3)n2)CC[C@@H]1C [Compound 00064, 1-((2S,5R)-2-methyl-5-(4-((3-(5-methyl-1,2,4-oxadiazol-3-yl)phenyl)amino)-6-(pyrazin-2-yl)pyrimidin-2-yl)piperidin-1-yl)ethan-1-one] | < 200 nM |
| < 200 nM | CC(=O)N1C[C@H](c2nc(Nc3cccc(NC(=O)c4ccccc4)c3)cc(-c3cccnc3)n2)CC[C@@H]1C [Compound 00079, N-(3-((2-((3R,6S)-1-acetyl-6-methylpiperidin-3-yl)-6-(pyridin-3-yl)pyrimidin-4-yl)amino)phenyl)benzamide] | < 200 nM |
| < 200 nM | CC(=O)N1C[C@H](c2nc(Nc3ccnc(C)c3)cc(-c3cncc(OC(F)F)c3)n2)CC[C@@H]1C [Compound 00111, 1-((2S,5R)-5-(4-(5-(difluoromethoxy)pyridin3-yl)-6-((2-methylpyridin4-yl)amino)pyrimidin-2-yl)-2-methylpiperidin-1-yl)ethan-1-one] | 200 to 1000 nM |
